Reference: ChEMBL document CHEMBL5463728, “Data for DCP probe BAY-6096” (2023)

Key:
[1] = target: T1, Alpha-2B adrenergic receptor (Homo sapiens, UniProt P18089); assay: Adrenoceptor Reporter Cell Assay (ADRA2B); type: functional
T1 sequence (P18089 whole entry): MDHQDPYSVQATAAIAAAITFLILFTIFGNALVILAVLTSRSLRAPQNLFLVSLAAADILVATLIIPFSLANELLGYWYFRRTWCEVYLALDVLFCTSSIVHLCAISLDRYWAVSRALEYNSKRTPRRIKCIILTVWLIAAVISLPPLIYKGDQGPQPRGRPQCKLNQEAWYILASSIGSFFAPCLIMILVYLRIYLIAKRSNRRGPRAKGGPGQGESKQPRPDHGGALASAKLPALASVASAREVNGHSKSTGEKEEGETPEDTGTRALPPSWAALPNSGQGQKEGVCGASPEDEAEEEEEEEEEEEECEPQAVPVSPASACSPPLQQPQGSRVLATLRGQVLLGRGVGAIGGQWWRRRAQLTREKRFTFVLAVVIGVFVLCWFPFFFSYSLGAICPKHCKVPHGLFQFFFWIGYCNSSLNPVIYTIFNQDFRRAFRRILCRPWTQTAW

[2] = target: D(1B) dopamine receptor (Homo sapiens) (UniProt P21918); conditions: Compound concentration 10.0 uM
[3] = target: T1, Alpha-2B adrenergic receptor; assay: GPCRScan assay: inhibition of Alpha2B; parameters: radioligand conc. used [nm] 1.5 – 2.0, parental cells HEKT
[4] = target: 5-hydroxytryptamine receptor 1A (Homo sapiens, UniProt P08908); assay: GPCRScan assay: inhibition of 5-HT1A; parameters: radioligand conc. used [nm] 0.5 – 1.0, parental cells stable CHO
[5] = target: B1 bradykinin receptor (Homo sapiens) (UniProt P46663); conditions: Compound concentration 10.0 uM
[6] = target: Muscarinic acetylcholine receptor M3 (Homo sapiens) (UniProt P20309); conditions: Compound concentration 10.0 uM
[7] = target: Estrogen receptor (Homo sapiens) (UniProt P03372); conditions: Compound concentration 10.0 uM
[8] = target: Histamine H2 receptor (Homo sapiens) (UniProt P25021); conditions: Compound concentration 10.0 uM
[9] = target: B2 bradykinin receptor (Homo sapiens) (UniProt P30411); conditions: Compound concentration 10.0 uM
[10] = target: Mu-type opioid receptor (Homo sapiens) (UniProt P35372); conditions: Compound concentration 10.0 uM
[11] = target: 5-hydroxytryptamine receptor 2A (Homo sapiens) (UniProt P28223); conditions: Compound concentration 10.0 uM
[12] = target: Adenosine Transporter (Cavia porcellus) (UniProt H0V4R7+H0UUG1+H0V3Z5); assay: Inhibition of Transporter, Adenosine at compound concentration of 10.0 uM in the Eurofins-Panlabs radioligand binding assay (Eurofins_assay_202000); type: protein assay; parameters: ligand concentration 0.5 nM, non-specific ligand with concentration 5 uM Nitrobenzylthioinosine, incubation time 30 min, incubation temperature 25 C; conditions: Compound concentration 10.0 uM
Rattus norvegicus = species: Rattus norvegicus; conditions: Compound concentration 10.0 uM
[13] = target: Beta-2 adrenergic receptor (Homo sapiens, UniProt P07550); conditions: Compound concentration 10.0 uM
[14] = target: Beta-1 adrenergic receptor (Homo sapiens, UniProt P08588); assay: Adrenoceptor reporter cell assay (ADRB1); type: functional
[15] = target: Type-2 angiotensin II receptor (Homo sapiens) (UniProt P50052); conditions: Compound concentration 10.0 uM
[16] = target: Gamma-aminobutyric acid type B receptor subunit 1 (Homo sapiens) (UniProt Q9UBS5); conditions: Rattus norvegicus; Compound concentration 10.0 uM
[17] = target: T2, Muscarinic acetylcholine receptor M2 (Homo sapiens) (UniProt P08172); conditions: Compound concentration 10.0 uM
T2 sequence (whole entry): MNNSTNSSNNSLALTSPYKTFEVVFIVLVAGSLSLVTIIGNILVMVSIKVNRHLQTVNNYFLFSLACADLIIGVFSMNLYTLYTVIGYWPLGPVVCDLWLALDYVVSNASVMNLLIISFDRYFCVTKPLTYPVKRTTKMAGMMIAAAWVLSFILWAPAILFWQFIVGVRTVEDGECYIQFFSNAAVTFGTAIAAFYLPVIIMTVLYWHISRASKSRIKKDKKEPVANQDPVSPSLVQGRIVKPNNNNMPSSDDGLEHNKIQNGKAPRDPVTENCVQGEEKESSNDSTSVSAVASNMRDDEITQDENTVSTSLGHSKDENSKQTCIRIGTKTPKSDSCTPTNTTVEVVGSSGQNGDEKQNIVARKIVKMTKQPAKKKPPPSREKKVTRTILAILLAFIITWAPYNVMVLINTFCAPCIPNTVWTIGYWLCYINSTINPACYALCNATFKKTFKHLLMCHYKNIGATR

[18] = target: Vasopressin V1a receptor (Homo sapiens) (UniProt P37288); conditions: Compound concentration 10.0 uM
[19] = target: Acetylcholinesterase (Homo sapiens) (UniProt P22303); conditions: Compound concentration 10.0 uM
[20] = target: Sodium-dependent dopamine transporter (Homo sapiens) (UniProt Q01959); conditions: Compound concentration 10.0 uM
[21] = target: Alpha-1B adrenergic receptor (Homo sapiens, UniProt P35368); assay: Adrenoceptor reporter cell assay (ADRA1B); type: functional
[22] = target: GABA-A receptor; anion channel (Rattus norvegicus) (UniProt O09028+P15431+P18506+P18508+P19969+P20236+P23574+P23576+P28471+P28473+P30191+P62813+P63079+P63138+Q91ZM7+Q9ES14); conditions: Compound concentration 10.0 uM
[23] = target: Thromboxane-A synthase (Homo sapiens) (UniProt P24557); assay: Inhibition of Thromboxane Synthase at compound concentration of 10.0 uM in the Eurofins-Panlabs enzyme assay (Eurofins_assay_194020); parameters: substrate with concentration; conditions: Compound concentration 10.0 uM
[24] = target: Purinergic P2Y (Rattus norvegicus) (UniProt O35811+Q9EPX4+P49651+Q63371+P41232+O35881+Q6GUG4); conditions: Compound concentration 10.0 uM
[25] = target: Glucocorticoid receptor (Homo sapiens) (UniProt P04150); conditions: Compound concentration 10.0 uM
Oryctolagus cuniculus = species: Oryctolagus cuniculus; conditions: Compound concentration 10.0 uM
[26] = target: Sodium-dependent serotonin transporter (Homo sapiens) (UniProt P31645); conditions: Compound concentration 10.0 uM

Chain of 5-hydroxytryptamine receptor 1A (P08908 whole entry): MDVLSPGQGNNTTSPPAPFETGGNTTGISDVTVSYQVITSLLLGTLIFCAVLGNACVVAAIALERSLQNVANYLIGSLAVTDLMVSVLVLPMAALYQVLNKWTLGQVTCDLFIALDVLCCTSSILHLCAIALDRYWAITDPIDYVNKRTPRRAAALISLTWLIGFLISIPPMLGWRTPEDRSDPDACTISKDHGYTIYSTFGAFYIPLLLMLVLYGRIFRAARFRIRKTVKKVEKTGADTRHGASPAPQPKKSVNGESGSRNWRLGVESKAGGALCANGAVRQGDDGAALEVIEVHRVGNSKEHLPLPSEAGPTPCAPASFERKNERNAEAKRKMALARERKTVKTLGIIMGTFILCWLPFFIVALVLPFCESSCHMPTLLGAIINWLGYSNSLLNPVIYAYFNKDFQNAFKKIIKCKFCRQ
Chain of D(1B) dopamine receptor (Homo sapiens) (P21918 whole entry): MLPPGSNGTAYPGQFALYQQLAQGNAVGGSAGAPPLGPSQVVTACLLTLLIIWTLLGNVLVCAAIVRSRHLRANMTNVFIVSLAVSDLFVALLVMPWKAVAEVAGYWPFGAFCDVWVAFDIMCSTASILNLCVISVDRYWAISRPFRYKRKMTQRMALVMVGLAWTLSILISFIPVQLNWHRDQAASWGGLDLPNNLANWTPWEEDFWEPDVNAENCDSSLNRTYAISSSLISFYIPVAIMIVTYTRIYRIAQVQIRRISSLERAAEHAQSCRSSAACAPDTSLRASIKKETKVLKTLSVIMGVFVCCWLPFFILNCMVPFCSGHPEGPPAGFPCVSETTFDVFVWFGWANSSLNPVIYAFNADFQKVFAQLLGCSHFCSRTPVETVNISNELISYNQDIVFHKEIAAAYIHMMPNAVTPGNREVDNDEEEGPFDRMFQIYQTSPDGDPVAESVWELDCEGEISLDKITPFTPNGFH
Chain of Beta-2 adrenergic receptor (P07550 whole entry, looked up): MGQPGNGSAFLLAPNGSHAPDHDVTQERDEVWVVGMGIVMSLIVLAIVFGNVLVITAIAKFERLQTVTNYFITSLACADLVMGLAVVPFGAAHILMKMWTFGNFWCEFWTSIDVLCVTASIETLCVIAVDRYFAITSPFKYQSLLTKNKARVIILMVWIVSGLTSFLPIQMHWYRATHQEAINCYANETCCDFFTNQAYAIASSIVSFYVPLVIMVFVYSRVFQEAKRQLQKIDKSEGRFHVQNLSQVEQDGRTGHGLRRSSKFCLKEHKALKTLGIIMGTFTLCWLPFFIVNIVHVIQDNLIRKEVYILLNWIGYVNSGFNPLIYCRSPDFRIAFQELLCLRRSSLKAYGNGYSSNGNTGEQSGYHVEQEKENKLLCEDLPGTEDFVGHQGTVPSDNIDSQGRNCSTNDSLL
Chain of Mu-type opioid receptor (Homo sapiens) (P35372 whole entry): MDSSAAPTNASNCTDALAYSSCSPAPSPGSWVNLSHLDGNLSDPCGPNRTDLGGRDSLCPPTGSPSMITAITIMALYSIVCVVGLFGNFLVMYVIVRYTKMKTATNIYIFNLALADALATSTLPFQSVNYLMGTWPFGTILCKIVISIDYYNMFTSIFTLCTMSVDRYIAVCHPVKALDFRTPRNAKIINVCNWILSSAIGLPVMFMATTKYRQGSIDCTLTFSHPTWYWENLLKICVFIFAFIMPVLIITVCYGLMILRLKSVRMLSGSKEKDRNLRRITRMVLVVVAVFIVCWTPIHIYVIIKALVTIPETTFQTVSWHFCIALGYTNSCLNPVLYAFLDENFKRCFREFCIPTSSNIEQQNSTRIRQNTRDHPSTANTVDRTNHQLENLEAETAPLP
Chain of Glucocorticoid receptor (Homo sapiens) (P04150 whole entry): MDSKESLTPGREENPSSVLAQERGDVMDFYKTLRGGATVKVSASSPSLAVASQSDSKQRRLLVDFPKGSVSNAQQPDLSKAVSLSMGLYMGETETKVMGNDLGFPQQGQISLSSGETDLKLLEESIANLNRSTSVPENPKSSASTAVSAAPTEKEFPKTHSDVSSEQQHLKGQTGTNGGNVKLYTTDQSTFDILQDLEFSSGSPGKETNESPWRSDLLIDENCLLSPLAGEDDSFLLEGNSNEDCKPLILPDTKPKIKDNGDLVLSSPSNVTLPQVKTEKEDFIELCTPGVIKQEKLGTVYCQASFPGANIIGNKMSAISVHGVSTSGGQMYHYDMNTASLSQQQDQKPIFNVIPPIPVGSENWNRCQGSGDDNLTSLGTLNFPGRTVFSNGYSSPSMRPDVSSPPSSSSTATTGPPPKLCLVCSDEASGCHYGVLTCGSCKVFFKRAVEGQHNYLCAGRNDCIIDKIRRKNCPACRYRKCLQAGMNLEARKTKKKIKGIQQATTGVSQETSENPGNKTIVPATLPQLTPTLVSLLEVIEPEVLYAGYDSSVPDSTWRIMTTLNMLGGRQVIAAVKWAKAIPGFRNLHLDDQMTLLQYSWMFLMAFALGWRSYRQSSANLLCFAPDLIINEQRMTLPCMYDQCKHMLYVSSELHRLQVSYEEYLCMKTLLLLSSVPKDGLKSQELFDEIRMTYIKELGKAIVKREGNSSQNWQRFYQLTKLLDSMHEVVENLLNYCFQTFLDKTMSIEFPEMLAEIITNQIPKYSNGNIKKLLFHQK
Chain of Alpha-1B adrenergic receptor (P35368 whole entry): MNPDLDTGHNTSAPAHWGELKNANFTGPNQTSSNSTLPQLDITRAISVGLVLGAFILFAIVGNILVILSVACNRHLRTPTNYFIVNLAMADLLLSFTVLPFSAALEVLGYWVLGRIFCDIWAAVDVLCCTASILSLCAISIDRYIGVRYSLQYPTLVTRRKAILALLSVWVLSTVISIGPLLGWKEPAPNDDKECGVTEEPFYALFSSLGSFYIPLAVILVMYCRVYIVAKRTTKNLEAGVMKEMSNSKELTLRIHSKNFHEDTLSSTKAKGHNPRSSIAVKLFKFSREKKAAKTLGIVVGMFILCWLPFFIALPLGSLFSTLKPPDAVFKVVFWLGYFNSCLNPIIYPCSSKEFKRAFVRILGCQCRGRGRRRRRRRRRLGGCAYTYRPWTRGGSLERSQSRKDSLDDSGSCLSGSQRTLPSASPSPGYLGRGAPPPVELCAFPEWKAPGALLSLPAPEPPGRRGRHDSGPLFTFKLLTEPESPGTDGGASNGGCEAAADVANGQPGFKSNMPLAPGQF
Chain of Thromboxane-A synthase (Homo sapiens) (P24557 whole entry): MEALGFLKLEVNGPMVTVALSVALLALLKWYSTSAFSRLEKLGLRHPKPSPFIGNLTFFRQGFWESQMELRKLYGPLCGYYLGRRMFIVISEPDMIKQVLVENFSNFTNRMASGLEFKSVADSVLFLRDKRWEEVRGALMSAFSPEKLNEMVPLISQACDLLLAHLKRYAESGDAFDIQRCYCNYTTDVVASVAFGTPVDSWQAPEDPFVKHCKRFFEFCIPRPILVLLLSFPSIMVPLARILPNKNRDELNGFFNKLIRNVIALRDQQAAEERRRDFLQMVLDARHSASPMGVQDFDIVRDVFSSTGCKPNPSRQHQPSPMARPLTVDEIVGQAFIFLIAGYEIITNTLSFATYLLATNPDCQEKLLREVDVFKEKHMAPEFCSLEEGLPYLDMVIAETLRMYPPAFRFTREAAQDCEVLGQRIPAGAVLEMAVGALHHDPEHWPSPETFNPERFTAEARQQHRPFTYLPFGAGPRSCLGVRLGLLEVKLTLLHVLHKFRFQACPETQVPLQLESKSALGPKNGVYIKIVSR
Chain of Vasopressin V1a receptor (Homo sapiens) (P37288 whole entry, looked up): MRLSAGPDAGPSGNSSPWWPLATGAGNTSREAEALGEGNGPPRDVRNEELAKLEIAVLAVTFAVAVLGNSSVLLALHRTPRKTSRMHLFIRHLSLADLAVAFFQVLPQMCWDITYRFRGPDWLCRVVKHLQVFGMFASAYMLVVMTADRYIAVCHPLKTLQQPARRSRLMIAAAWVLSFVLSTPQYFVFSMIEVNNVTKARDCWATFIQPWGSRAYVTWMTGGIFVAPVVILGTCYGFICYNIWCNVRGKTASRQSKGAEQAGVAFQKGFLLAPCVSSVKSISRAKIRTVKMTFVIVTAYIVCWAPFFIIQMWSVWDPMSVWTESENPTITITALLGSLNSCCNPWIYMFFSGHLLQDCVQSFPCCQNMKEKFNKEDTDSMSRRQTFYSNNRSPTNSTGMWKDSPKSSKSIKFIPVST
Chain of Gamma-aminobutyric acid type B receptor subunit 1 (Homo sapiens) (Q9UBS5 whole entry): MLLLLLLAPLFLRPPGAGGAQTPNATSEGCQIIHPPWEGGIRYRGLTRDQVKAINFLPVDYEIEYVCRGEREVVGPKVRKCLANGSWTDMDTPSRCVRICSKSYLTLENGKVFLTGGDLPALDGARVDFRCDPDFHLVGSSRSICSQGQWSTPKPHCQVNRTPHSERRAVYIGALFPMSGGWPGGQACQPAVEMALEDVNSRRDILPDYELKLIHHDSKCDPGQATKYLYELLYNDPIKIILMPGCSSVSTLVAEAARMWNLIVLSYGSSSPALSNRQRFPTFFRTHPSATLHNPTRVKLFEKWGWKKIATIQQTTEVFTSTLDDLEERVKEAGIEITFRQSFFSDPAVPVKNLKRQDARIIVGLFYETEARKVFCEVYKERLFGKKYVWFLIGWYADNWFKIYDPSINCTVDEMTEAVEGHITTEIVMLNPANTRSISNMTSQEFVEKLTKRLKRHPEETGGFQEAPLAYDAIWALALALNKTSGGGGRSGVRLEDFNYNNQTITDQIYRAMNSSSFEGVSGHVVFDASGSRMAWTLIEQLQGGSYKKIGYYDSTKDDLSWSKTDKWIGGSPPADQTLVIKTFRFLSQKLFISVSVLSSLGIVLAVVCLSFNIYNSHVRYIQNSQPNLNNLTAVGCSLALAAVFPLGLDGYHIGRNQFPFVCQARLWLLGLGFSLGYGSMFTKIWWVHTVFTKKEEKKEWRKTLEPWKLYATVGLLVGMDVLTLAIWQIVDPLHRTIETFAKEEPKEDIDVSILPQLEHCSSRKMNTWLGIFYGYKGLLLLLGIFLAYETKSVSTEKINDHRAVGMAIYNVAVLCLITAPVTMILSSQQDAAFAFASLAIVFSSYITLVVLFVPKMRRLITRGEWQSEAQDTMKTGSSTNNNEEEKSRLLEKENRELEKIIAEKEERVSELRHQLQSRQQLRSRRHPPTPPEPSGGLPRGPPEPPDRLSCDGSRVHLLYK

SMILES: Cc1noc(C)c1-c1cnc2cc(C(=O)NCCC[n+]3ccc(N(C)C)cc3)ccn12
- IC50 [1]: 7.1 µM (not active)
- inhibition [2]: 0.03%
- Ki ([3]; read-out: Ki): 2.76 µM
- Ki ([3]; read-out: pKi (converted)): 2.51 µM
- Ki ([4]; read-out: Ki): 0.212 µM
- Ki ([4]; read-out: pKi (converted)): 0.182 µM

SMILES: CNc1cc[n+](CCNC(=O)c2ccn3c(-c4c(C)noc4C)cnc3c2)cc1
- inhibition [5]: -0.9%
- inhibition [6]: -0.2%
- inhibition [7]: 6.2%
- inhibition [8]: -0.4%
- inhibition [9]: -1.8%
- inhibition [10]: 0.1%
- inhibition [11]: 1%
- inhibition [12]: -2.2%
- inhibition (Rattus norvegicus): 4.24%
- inhibition [13]: -4.49%
- IC50 [14]: > 10 µM (not active)
- inhibition [15]: 4.1%
- inhibition [16]: 2.1%
- inhibition [17]: 6.4%
- inhibition [18]: -2.3%
- inhibition [19]: 14.8%
- inhibition [20]: 20.3%
- IC50 [21]: > 10 µM (not active)
- inhibition [22]: -1.9%
- inhibition [23]: -8.2%
- inhibition [24]: 10.6%
- inhibition [25]: 1.3%
- inhibition (Oryctolagus cuniculus): -7.5%
- inhibition [26]: 0.4%
